Our source for the TGI values is PubChem BioAssay (NCI).

What all share (assay): DTP human tumour cell line panel, 48 h
Test [1] concerns SK-OV-3 ovarian.
For test [2], the system named is DU-145 prostate.
In test [3] the test system is NCI/ADR-RES ovarian.
Test [4] concerns MDA-MB-231 breast.
Test [5] concerns SK-MEL-28 melanoma.
Test [6] concerns KM12 colon.
Test [7] relates to LOX IMVI melanoma.
For test [8], the system named is SK-MEL-5 melanoma.
For test [9], the system named is K-562 leukemia.
The test system of test [10] is NCI-H226 lung.
Test [11] relates to HCT-116 colon.
The subject of test [12] is SNB-75 CNS.
Test [13] has as its system OVCAR-4 ovarian.
Test [14] concerns M14 melanoma.
The subject of test [15] is OVCAR-5 ovarian.
The subject of test [16] is RPMI-8226 leukemia.
In test [17] the test system is CAKI-1 renal.

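The compound was tested at five concentrations on cells cultured in 96-well plates, with a 48-hour exposure period. TGI: total growth inhibition.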

As a reminder, the TGI is the concentration giving total growth inhibition. Take `CCOC(=O)c1csc(-c2cn(C)c3c2C(=O)C(OC)=CC3=O)n1`: the concentration for total growth inhibition (TGI) in [1] was over 100 µM; in test [2] it was 91.3 µM; in [3], over 100 µM; in test [4], 57.8 µM; in test [5], over 100 µM; in [6] it was over 71.8 µM. Also, the TGI in test [7] was over 100 µM; in test [8] it was 12.7 µM; in [9], over 100 µM; in test [10], over 100 µM; in [11], over 100 µM; in test [12], over 83.4 µM. Also, the TGI was over 100 µM in test [13]; 63.3 µM in test [14]; over 100 µM in test [15]; over 80.1 µM in [16]; over 100 µM in [17].
For `CC(C)CC1NC(=O)CCC(NC(=O)C(Cc2ccc(O)cc2)NC(=O)OCc2ccccc2)C(=O)NC(Cc2ccccc2)C(=O)NC(Cc2ccccc2)NC1=O` (stereo not drawn), the TGI in test [1], in test [2], in test [3], in test [4], in [5] and in test [6] was over 100 µM in each case. Besides, the TGI in test [7], in test [8], in test [9], in [10], in [11] and in [12] was over 100 µM each time. For the same molecule, the TGI in test [13], in test [14], in [15], in test [16] and in test [17] was over 100 µM each time.
Take `CC1(C)CCC[C@@]2(C)C1CC[C@@]1(CO1)[C@@H]2/C=C\C(C=O)CC=O` (stereo partly drawn): the TGI in test [1], in test [2], in test [3], in test [4], in test [5] and in test [6] was over 100 µM in each case. Also, the TGI is over 100 µM in test [7]; over 100 µM in test [8]; over 69.5 µM in [9]; over 100 µM in test [10]; over 100 µM in test [11]; over 100 µM in [12]. Also, the TGI in test [13] is over 100 µM; in [14], over 100 µM; in test [15], over 100 µM; in test [16] it was over 28.1 µM; in test [17], over 100 µM.
For the molecule `COC(=O)/C(C#N)=C/c1cc(C(C)(C)C)c(O)c(C(C)(C)C)c1`, the TGI in test [1] is 8.04 µM; in [2] it was over 100 µM; in test [3], 9.65 µM; in test [4] it was 4.95 µM; in test [5], 15.4 µM; in [6], 19.9 µM. Further, the TGI in test [7] was 17 µM; in test [8], 3.39 µM; in test [9], over 47.8 µM; in [10], 9.6 µM; in test [11] it was 10.5 µM; in [12], 17.1 µM. The TGI is over 51.2 µM in [13]; 13.6 µM in [14]; 8.51 µM in [15]; 3.54 µM in [16]; over 27.4 µM in [17].
Consider `CCCC(C(=O)Nc1cccc2[nH]cnc12)C(=O)OCC` (stereo not drawn), for which the concentration for total growth inhibition (TGI) in test [1], in [2], in [3], in test [4], in test [5] and in [6] was over 100 µM each time. In addition, the TGI in [7], in [9], in [10], in test [11], in test [12] and in test [13] was over 100 µM throughout. The TGI in [14], in test [15] and in test [16] was over 100 µM each time.
On to `CCOC(=O)c1nc2cc(F)cc(F)c2[nH]c1=O`, for which the TGI in [1], in test [2], in test [3], in [4], in test [5] and in test [6] was over 100 µM in each case. In addition, the TGI in [7], in test [8], in [9], in test [10], in test [11] and in [12] was over 100 µM in each case. Further, the TGI in test [13], in test [14], in test [15], in [16] and in [17] was over 100 µM in each case.
For `N#CC(C#N)=Cn1c(=S)[nH]c2ccc([N+](=O)[O-])cc21`, the TGI in test [1], in test [2], in test [3], in test [4], in [5] and in [6] was over 100 µM in each case. In addition, the TGI in test [7], in [8], in test [9], in [10], in test [11] and in [12] was over 100 µM each time. In addition, the total growth inhibition concentration (TGI) in test [13], in test [14], in [15], in test [16] and in test [17] was over 100 µM throughout.
`c1ccc(COC[C@H]2C3OCC([C@H](OCc4ccccc4)[C@H]3OCc3ccccc3)N2Cc2ccccc2)cc1` (stereo partly drawn): the TGI in test [1], in test [2], in test [3], in [4], in [5] and in test [6] was over 100 µM throughout. Further, the TGI in test [7] was over 100 µM; in test [8], over 100 µM; in [9] it was over 83 µM; in [10], over 100 µM; in test [11], over 100 µM; in [12], over 100 µM. Also, the TGI in test [13], in [14], in test [15], in test [16] and in [17] was over 100 µM each time.
With `COc1cc(-c2ccccc2)cn2c1nc1ccccc12`, the TGI was 59.7 µM in test [1]; over 100 µM in test [2]; 66.7 µM in test [3]; 49.8 µM in test [4]; 33.2 µM in [5]; 36.1 µM in [6]. In addition, the TGI in test [7] amounted to 52.4 µM; in [8], 37.9 µM; in test [9] it was 67.1 µM; in test [10] it was 39.7 µM; in [11] it was 39.5 µM; in test [12], 43.2 µM. In addition, the TGI in [14] came to 43.4 µM; in [15] it was 31.7 µM; in [16], 62 µM; in [17] it was 52.3 µM.
Turning to `COc1nc2c(c(=O)[nH]1)N=C(c1ccc(Cl)cc1)CC(c1ccccc1)N2` (stereo not drawn), the TGI in test [2] was over 100 µM; in test [3], 75.4 µM; in [4], 50.8 µM; in test [5], 54.1 µM; in [6] it was over 100 µM; in test [7], 57.1 µM. The TGI was 36.8 µM in test [8]; 67.1 µM in [9]; over 100 µM in test [10]; over 100 µM in [11]; 54.9 µM in test [12]; 57.4 µM in [13]. For the same molecule, the TGI in test [14] is 43 µM; in test [15] it was over 100 µM; in test [16] it was 65.8 µM; in [17] it was 66.2 µM.
For `COC(=O)[C@@H]1[C@H]2CC[C@]3(C)[C@@H](OC(C)=O)CC[C@H]3[C@@H]2CC[C@H]1C(C)=O`, the TGI in test [1], in test [2], in test [3], in test [4], in test [5] and in [6] was over 100 µM throughout. For the same molecule, the TGI in test [7], in [8], in test [9], in [10], in test [11] and in test [12] was over 100 µM throughout. Also, the TGI in test [14], in test [15], in test [16] and in [17] was over 100 µM throughout.
On to `CN1CCN(Cc2ccccc2)CC1CC#N` (stereo not drawn), for which the TGI in test [1], in test [2], in test [3], in test [4], in test [5] and in test [6] was over 100 µM in each case. Further, the TGI in test [7], in test [8], in test [9], in test [10], in [11] and in [12] was over 100 µM throughout. The TGI in test [13], in [15], in [16] and in test [17] was over 100 µM throughout.
With `O=C(CCN1CCCC1)c1ccc(Oc2ccc(F)cc2)cc1`, the TGI is over 100 µM in test [1]; over 100 µM in [2]; over 100 µM in test [3]; over 100 µM in [4]; over 100 µM in [5]; 90.9 µM in [6]. Further, the TGI in [7], in [8], in test [9], in [10], in [11] and in test [12] was over 100 µM in each case. Also, the TGI in [13] is over 100 µM; in test [14], 99.5 µM; in [15], over 100 µM; in test [17] it was 30.1 µM.
`CC[C@]1(Cc2ccc(OC)c(OC)c2)C=[N+]([O-])O[C@H](OCc2ccccc2)[C@@H]1OC(C)=O`: the TGI was over 100 µM in test [1]; 93.5 µM in test [2]; over 100 µM in test [3]; over 100 µM in test [4]; 84.6 µM in test [5]; 58.8 µM in test [6]. For the same molecule, the TGI in [7] was 39.5 µM; in test [8], over 100 µM; in test [9] it was 56.8 µM; in test [10], 53.8 µM; in test [12], over 100 µM; in [13] it was 95.6 µM. Moreover, the TGI was over 100 µM in [14], over 100 µM in test [15], 57.9 µM in test [16] and 80.9 µM in test [17].
`N#Cc1c(N)c2c(c(-c3ccccc3)c1-c1ccccc1)C(=O)N(O)C2=O`: the TGI in test [2] was over 100 µM; in test [3], over 100 µM; in test [4] it was over 100 µM; in test [5] it was over 100 µM; in test [6], 83.5 µM; in test [7], over 100 µM. Besides, the TGI in test [8] is over 100 µM; in [9], over 100 µM; in test [10], 62.8 µM; in test [11], 82.4 µM; in test [12], over 100 µM; in [13], over 100 µM. Moreover, the TGI in [14], in test [15], in test [16] and in [17] was over 100 µM in each case.
Regarding `Cc1ccc(S(=O)(=O)NNC(=O)Nc2ccc([N+](=O)[O-])cc2)cc1`, the TGI in test [2], in [3], in test [4], in test [5], in test [6] and in test [7] was over 100 µM throughout. Further, the TGI in [8] is over 100 µM; in test [9] it was over 100 µM; in test [10] it was over 100 µM; in [11] it was over 100 µM; in [12], over 100 µM; in [13], 89.4 µM. The concentration for total growth inhibition (TGI) in test [14] was over 100 µM; in test [15], over 100 µM; in [16] it was 78.5 µM; in test [17], over 100 µM.
On to `CC1=NNC(=O)C1C1C=C(c2c[nH]c3ccccc23)OC1=O` (stereo not drawn), for which the TGI in test [1], in [2], in [3], in test [4], in test [5] and in test [6] was over 100 µM throughout. Further, the TGI in [7], in test [8], in test [9], in test [10], in test [11] and in test [12] was over 100 µM each time. Further, the TGI in test [14], in [15], in test [16] and in [17] was over 100 µM throughout.
